{
  "source": "patent US11806342B2",
  "about": "“Diiodohydroxyquinoline for the treatment of clostridium difficile infection” (Purdue Research Foundation, priority 2019, dated 2023)",
  "type_in_all_cases": "cell-based, Clostridium difficile",
  "key": {"C. difficile ATCC 1801": {"tested_on": "C. difficile ATCC 1801", "test": "Checkerboard assay, DIHQ with metronidazole or vancomycin", "conditions": "DIHQ with vancomycin, C. difficile ATCC 1801", "procedure": "(§1) Interactions between diiodohydroxyquinoline and the anticlostridial drugs (metronidazole and vancomycin) against Clostridium difficile clinical isolates. […] The fractional inhibitory concentration index (ΣFIC) was calculated for each interaction. Interactions where the ΣFIC index was ≤0.5 were categorized as synergistic (SYN)."}, "C. difficile ATCC 9689": {"tested_on": "C. difficile ATCC 9689", "test": "Checkerboard assay, DIHQ with metronidazole or vancomycin", "procedure": "as §1"}, "[1]": {"tested_on": "C. difficile ATCC BAA-1870", "test": "Spore inhibition assay", "conditions": "five days", "procedure": "(§2) The spore inhibition assay was performed as described in previous reports to investigate the effect of diiodohydroxyquinoline on C. difficile spore formation. Briefly, […], the bacterial suspension was split into microcentrifuge tubes and drugs were added (in triplicates) at concentrations equal to ½×MIC or 1×MIC. Tubes were then, incubated anaerobically for five days at 37° C. Thereafter, an aliquot from each tube was diluted and plated on BHIS agar plates supplemented with 0.1% taurocholic acid, to count the total bacterial counts (vegetative bacteria+spores). The remaining solution was centrifuged, and the pellet was suspended in PBS, stored overnight at 4° C., and subsequently shock-heated at 70° C. for 30 minutes to kill the vegetative cells. The resulting solution was serially diluted and plated to determine the heat-resistant spore counts. Spore inhibition assay was performed as described in previous reports to investigate the effect of DIHQ on C. difficile spore formation. Briefly, log-phase cultures of C. difficile strains (ATCC BAA-1870, ATCC 43255, and NR-49277) were diluted in BHIS to an initial density of ˜10^6 CFU/mL. Afterwards, the bacterial suspension was split in small tubes and the drugs were added (in triplicates) at concentrations equal to ½×MIC or 1×MIC. Tubes were then incubated anaerobically for 5 days at 37° C. After that, an aliquot from each tube was diluted and plated on BHIS agar plates supplemented with 0.1% taurocholic acid, to count the total bacterial count (vegetative bacteria+spores). The remaining solution was centrifuged, and the pellet was suspended in PBS and stored overnight at 4° C. then shock heated at 70° C. for 30 minutes to kill the vegetative cells. The resulting solution was serially diluted and plated to determine the heat-resistant spore counts."}, "C. difficile ATCC 43255": {"tested_on": "C. difficile ATCC 43255", "test": "Spore inhibition assay", "conditions": "five days", "procedure": "as §2"}, "C. difficile NR-49277": {"tested_on": "C. difficile NR-49277", "test": "Spore inhibition assay", "conditions": "five days", "procedure": "as §2"}, "[2]": {"tested_on": "38 tested C. difficile strains", "test": "MIC and MBC over the panel of clinical isolates (MIC50, MIC90, range)", "procedure": "(§3) MIC50 and MIC90 are the minimum concentration of each agent that inhibited growth of 50% and 90% of the tested isolates, respectively. The minimum bactericidal concentration (MBC) of these drugs was tested by plating 5 μL from wells with no growth onto BHIS agar plates. The MBC was categorized as the lowest concentration that reduced bacterial growth by 99.9% MIC50 and MIC90 are the minimum concentration of each agent that inhibited the growth of 50% and 90% of the tested isolates, respectively. The minimum bactericidal concentration (MBC) of these drugs was tested by plating 5 μL from wells with no growth onto BHIS agar plates. The MBC was categorized as the lowest concentration that reduced bacterial growth by 99.9% [29-31]."}, "C. difficile P7": {"tested_on": "C. difficile P7", "test": "MIC and MBC, broth microdilution", "conditions": "Clostridioides difficile, C. difficile P7", "procedure": "as §3"}, "C. difficile P24": {"tested_on": "C. difficile P24", "test": "MIC and MBC, broth microdilution", "conditions": "Clostridioides difficile, C. difficile P24", "procedure": "as §3"}, "C. difficile NR-49286": {"tested_on": "C. difficile NR-49286", "test": "MIC and MBC, broth microdilution", "conditions": "Clostridioides difficile, NR49286, C. difficile NR-49286", "procedure": "as §3"}, "C. difficile ATCC 43598": {"tested_on": "C. difficile ATCC 43598", "test": "MIC and MBC, broth microdilution", "conditions": "Clostridioides difficile, ATCC43598, C. difficile ATCC 43598", "procedure": "as §3"}, "C. difficile NR-49284": {"tested_on": "C. difficile NR-49284", "test": "MIC and MBC, broth microdilution", "conditions": "Clostridioides difficile, NR49284, C. difficile NR-49284", "procedure": "as §3"}, "C. difficile I1": {"tested_on": "C. difficile I1", "test": "MIC and MBC, broth microdilution", "conditions": "Clostridioides difficile, C. difficile I1", "procedure": "as §3"}, "C. difficile P8": {"tested_on": "C. difficile P8", "test": "MIC and MBC, broth microdilution", "conditions": "Clostridioides difficile, C. difficile P8", "procedure": "as §3"}, "C. difficile P1": {"tested_on": "C. difficile P1", "test": "MIC and MBC, broth microdilution", "conditions": "Clostridioides difficile, C. difficile P1", "procedure": "as §3"}, "C. difficile ATCC 700057": {"tested_on": "C. difficile ATCC 700057", "test": "MIC and MBC, broth microdilution", "conditions": "Clostridioides difficile, ATCC700057, C. difficile ATCC 700057", "procedure": "as §3"}, "[3]": {"conditions": "DIHQ with metronidazole, C. difficile ATCC 9689"}, "[4]": {"conditions": "DIHQ with vancomycin, C. difficile ATCC 9689"}},
  "data": [
    {"compound": "Oc1c(I)cc(I)c2cccnc12", "note": "[DIHQ, 5,7-diiodoquinolin-8-ol]", "values": [
      {"measurement": "Interpretation", "setting": "C. difficile ATCC 1801", "value": "ADD (ΣFIC index >0.5 − 1.25 is considered additive (ADD))"},
      {"measurement": "ΣFIC Index", "setting": "C. difficile ATCC 1801", "value": 0.625},
      {"measurement": "MIC of DIHQ combined with metronidazole", "setting": "C. difficile ATCC 9689; C. difficile ATCC 9689", "value": 0.06, "unit": "µg/mL"},
      {"measurement": "MIC of DIHQ combined with vancomycin", "setting": "C. difficile ATCC 9689; C. difficile ATCC 9689", "value": 0.06, "unit": "µg/mL"},
      {"measurement": "MIC alone", "setting": "C. difficile ATCC 9689; C. difficile ATCC 9689, Table 4", "value": 0.125, "unit": "µg/mL"},
      {"measurement": "MIC", "setting": "C. difficile ATCC 9689; Clostridioides difficile, ATCC9689, C. difficile ATCC 9689, Table 3, read-out: MIC alone", "value": 0.125, "unit": "µg/mL"},
      {"measurement": "Interpretation", "setting": "C. difficile ATCC 9689; [3]", "value": "ADD (ΣFIC index >0.5 − 1.25 is considered additive (ADD))"},
      {"measurement": "ΣFIC Index", "setting": "C. difficile ATCC 9689; [3]", "value": 0.62},
      {"measurement": "Interpretation", "setting": "C. difficile ATCC 9689; [4]", "value": "ADD (ΣFIC index >0.5 − 1.25 is considered additive (ADD))"},
      {"measurement": "ΣFIC Index", "setting": "C. difficile ATCC 9689; [4]", "value": 0.625},
      {"measurement": "reduction in spore count", "setting": "[1]; C. difficile ATCC BAA-1870, 1×MIC", "value": "~1.24", "unit": "log10"},
      {"measurement": "reduction in spore count", "setting": "[1]; C. difficile ATCC BAA-1870, ½×MIC", "value": "~0.74", "unit": "log10"},
      {"measurement": "reduction in spore count", "setting": "C. difficile ATCC 43255; C. difficile ATCC 43255, 1×MIC", "value": "~0.99", "unit": "log10"},
      {"measurement": "reduction in spore count", "setting": "C. difficile ATCC 43255; C. difficile ATCC 43255, ½×MIC", "value": "~0.38", "unit": "log10"},
      {"measurement": "reduction in spore count", "setting": "C. difficile NR-49277; C. difficile NR-49277, 1×MIC", "value": "~0.62", "unit": "log10"},
      {"measurement": "reduction in spore count", "setting": "C. difficile NR-49277; C. difficile NR-49277, ½×MIC", "value": "~0.56", "unit": "log10"},
      {"measurement": "MIC50", "setting": "[2]; Clostridioides difficile, concentration inhibiting growth of 50% of the tested isolates, read-out: MIC50", "value": 0.5, "unit": "µg/mL"},
      {"measurement": "MIC90", "setting": "[2]; Clostridioides difficile, concentration inhibiting growth of 90% of the tested isolates, read-out: MIC90", "value": 2, "unit": "µg/mL"},
      {"measurement": "MBC values relative to the corresponding MIC values", "setting": "[2]; all isolates", "value": "equal to or two-fold higher"},
      {"measurement": "MIC range", "setting": "[2]; over the 38 tested C. difficile strains", "value": "0.06 to 2", "unit": "µg/mL"},
      {"measurement": "MBC", "setting": "C. difficile P7; read-out: MBC", "value": 0.5, "unit": "µg/mL"},
      {"measurement": "MIC", "setting": "C. difficile P7; read-out: MIC", "value": 0.5, "unit": "µg/mL"},
      {"measurement": "MBC", "setting": "C. difficile P24; read-out: MBC", "value": 2, "unit": "µg/mL"},
      {"measurement": "MIC", "setting": "C. difficile P24; read-out: MIC", "value": 1, "unit": "µg/mL"},
      {"measurement": "MBC", "setting": "C. difficile NR-49286; read-out: MBC", "value": 0.5, "unit": "µg/mL"},
      {"measurement": "MIC", "setting": "C. difficile NR-49286; read-out: MIC", "value": 0.25, "unit": "µg/mL"},
      {"measurement": "MBC", "setting": "C. difficile ATCC 43598; read-out: MBC", "value": 1, "unit": "µg/mL"},
      {"measurement": "MIC", "setting": "C. difficile ATCC 43598; read-out: MIC", "value": 1, "unit": "µg/mL"},
      {"measurement": "MBC", "setting": "C. difficile NR-49284; read-out: MBC", "value": 0.125, "unit": "µg/mL"},
      {"measurement": "MIC", "setting": "C. difficile NR-49284; read-out: MIC", "value": 0.125, "unit": "µg/mL"},
      {"measurement": "MBC", "setting": "C. difficile I1; read-out: MBC", "value": 1, "unit": "µg/mL"},
      {"measurement": "MIC", "setting": "C. difficile I1; read-out: MIC", "value": 1, "unit": "µg/mL"},
      {"measurement": "MBC", "setting": "C. difficile P8; read-out: MBC", "value": 0.125, "unit": "µg/mL"},
      {"measurement": "MIC", "setting": "C. difficile P8; read-out: MIC", "value": 0.125, "unit": "µg/mL"},
      {"measurement": "MBC", "setting": "C. difficile P1; read-out: MBC", "value": 0.5, "unit": "µg/mL"},
      {"measurement": "MIC", "setting": "C. difficile P1; read-out: MIC", "value": 0.5, "unit": "µg/mL"},
      {"measurement": "MBC", "setting": "C. difficile ATCC 700057; read-out: MBC", "value": 0.5, "unit": "µg/mL"},
      {"measurement": "MIC", "setting": "C. difficile ATCC 700057; read-out: MIC", "value": 0.5, "unit": "µg/mL"}
    ]}
  ]
}
